# Values quoted from earlier work as cited in US8143297B2, “Heterocyclic derivatives as modulators of ion channels” (Vertex Pharmaceuticals Incorporated, priority 2008, dated 2012).
# Legend:
# Conditions in all cases: read-out: TTX IC50
# NaV1.6 = NaV1.6 (Homo sapiens, UniProt Q9UQD0)
# NaV1.1 = NaV1.1 (Homo sapiens, UniProt P35498)
# NaV1.3 = NaV1.3 (Homo sapiens, UniProt Q9NY46)
# NaV1.8 = NaV1.8 (Homo sapiens, UniProt Q9Y5Y9)
# NaV1.2 = NaV1.2 (Homo sapiens, UniProt Q99250)
# NaV1.9 = NaV1.9 (Homo sapiens, UniProt Q9UI33)
# Chain of NaV1.2 (Q99250 whole entry, looked up): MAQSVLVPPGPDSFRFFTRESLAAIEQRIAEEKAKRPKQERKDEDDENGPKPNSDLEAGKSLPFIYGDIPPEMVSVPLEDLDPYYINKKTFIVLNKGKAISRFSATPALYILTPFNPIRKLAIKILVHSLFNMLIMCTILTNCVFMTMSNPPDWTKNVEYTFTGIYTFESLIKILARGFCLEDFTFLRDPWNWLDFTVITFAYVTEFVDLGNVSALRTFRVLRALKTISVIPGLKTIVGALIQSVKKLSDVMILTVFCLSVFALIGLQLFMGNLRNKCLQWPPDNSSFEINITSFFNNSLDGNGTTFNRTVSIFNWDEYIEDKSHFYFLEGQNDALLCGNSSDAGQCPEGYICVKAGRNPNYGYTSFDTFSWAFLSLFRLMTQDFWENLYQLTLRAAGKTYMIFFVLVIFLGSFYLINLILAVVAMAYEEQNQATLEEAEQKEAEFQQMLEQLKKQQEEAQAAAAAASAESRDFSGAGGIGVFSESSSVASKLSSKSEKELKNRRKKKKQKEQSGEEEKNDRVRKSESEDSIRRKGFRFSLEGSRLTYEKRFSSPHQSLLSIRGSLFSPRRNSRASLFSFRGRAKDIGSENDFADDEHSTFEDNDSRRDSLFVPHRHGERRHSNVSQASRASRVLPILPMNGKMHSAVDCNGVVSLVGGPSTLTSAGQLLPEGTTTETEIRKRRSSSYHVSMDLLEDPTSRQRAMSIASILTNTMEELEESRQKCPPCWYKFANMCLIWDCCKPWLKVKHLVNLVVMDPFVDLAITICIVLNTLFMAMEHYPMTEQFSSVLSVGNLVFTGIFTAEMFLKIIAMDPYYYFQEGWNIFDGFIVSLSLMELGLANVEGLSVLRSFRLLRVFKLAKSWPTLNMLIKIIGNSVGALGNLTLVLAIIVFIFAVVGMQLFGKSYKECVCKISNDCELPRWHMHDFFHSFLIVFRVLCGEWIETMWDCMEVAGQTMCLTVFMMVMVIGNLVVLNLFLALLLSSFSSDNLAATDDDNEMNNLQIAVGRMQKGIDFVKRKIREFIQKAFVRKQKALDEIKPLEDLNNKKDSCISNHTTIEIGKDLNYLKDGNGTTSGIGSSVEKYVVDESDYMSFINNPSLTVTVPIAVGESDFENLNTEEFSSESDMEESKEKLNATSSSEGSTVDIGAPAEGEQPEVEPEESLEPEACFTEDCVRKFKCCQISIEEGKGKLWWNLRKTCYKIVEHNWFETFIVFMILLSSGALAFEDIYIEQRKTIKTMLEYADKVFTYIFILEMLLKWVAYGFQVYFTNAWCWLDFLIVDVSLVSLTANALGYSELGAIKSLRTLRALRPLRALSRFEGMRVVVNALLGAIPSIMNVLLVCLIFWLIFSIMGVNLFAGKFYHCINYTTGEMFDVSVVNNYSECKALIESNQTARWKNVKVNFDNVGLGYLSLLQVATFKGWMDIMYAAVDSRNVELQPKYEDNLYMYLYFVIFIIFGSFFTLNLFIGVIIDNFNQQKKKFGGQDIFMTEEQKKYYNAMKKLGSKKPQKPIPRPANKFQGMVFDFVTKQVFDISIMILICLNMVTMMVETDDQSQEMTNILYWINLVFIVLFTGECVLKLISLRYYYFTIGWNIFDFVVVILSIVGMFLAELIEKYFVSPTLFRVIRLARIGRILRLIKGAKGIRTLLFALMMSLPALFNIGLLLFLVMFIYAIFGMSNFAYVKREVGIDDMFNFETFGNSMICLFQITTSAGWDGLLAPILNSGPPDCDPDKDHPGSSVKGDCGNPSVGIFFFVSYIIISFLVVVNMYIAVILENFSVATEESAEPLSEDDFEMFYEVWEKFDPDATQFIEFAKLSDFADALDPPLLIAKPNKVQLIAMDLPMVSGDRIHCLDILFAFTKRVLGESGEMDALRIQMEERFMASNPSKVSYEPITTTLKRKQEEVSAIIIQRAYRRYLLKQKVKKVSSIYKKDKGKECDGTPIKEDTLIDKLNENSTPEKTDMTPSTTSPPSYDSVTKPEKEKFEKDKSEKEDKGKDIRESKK
# Chain of NaV1.6 (Q9UQD0 whole entry, looked up): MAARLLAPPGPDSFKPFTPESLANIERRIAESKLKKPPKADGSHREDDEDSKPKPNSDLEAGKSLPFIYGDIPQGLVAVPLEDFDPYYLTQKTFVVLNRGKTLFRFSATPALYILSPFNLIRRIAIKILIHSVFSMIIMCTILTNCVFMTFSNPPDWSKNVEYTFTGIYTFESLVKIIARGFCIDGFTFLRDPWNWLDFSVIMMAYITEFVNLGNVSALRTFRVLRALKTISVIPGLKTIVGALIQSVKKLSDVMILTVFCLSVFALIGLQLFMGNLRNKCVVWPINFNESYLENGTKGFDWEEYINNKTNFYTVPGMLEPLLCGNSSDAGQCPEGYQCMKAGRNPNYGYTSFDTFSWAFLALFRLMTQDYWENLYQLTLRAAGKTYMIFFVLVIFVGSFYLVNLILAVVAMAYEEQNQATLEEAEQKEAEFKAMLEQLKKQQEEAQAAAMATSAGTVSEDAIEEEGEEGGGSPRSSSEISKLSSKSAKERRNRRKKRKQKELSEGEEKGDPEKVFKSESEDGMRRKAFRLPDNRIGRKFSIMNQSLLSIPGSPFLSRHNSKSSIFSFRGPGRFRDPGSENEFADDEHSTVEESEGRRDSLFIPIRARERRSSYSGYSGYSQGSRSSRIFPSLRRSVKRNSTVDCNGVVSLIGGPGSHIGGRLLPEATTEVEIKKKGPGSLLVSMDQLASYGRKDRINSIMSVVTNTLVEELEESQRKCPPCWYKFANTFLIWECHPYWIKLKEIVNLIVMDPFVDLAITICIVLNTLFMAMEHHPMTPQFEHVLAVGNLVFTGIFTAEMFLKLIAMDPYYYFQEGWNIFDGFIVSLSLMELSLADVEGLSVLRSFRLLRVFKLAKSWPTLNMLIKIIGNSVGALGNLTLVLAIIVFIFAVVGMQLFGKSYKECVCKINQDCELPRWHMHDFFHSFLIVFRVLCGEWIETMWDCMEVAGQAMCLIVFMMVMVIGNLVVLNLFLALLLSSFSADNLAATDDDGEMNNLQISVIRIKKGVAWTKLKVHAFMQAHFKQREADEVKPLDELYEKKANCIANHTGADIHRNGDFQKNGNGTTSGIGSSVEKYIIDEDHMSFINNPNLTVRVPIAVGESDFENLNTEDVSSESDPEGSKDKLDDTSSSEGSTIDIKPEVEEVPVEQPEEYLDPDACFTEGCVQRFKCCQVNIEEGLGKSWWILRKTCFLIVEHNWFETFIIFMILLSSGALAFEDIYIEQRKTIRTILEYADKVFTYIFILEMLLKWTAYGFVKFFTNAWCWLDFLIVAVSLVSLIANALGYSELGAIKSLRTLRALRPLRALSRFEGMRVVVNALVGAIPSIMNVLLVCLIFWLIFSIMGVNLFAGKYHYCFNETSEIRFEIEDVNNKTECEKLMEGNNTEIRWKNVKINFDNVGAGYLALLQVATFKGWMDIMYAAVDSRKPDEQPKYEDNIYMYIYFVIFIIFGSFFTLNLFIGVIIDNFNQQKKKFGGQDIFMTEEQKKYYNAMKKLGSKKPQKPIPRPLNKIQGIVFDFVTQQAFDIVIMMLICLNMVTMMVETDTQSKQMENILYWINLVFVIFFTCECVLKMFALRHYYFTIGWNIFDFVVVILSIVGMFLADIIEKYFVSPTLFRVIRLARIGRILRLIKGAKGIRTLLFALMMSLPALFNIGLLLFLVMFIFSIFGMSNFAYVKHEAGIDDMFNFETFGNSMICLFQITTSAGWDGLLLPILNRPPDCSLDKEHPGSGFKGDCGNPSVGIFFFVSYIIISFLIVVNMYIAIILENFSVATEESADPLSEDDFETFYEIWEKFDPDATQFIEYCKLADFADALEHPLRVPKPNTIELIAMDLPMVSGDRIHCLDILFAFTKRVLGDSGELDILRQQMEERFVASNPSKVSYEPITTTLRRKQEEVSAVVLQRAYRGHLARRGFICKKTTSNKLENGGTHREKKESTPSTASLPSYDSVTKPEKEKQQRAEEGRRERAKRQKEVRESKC
structure (smiles),measurement,setting,value
"NC1=N[C@H](O)[C@H]2[C@H]3O[C@]4(O)O[C@@H]([C@@H](O)[C@@]2(N1)[C@@H]4O)[C@]3(O)CO [TTX, tetrodotoxin]",IC50,NaV1.6,0.006 µM
same,IC50,NaV1.1,0.01 µM
same,IC50,NaV1.3,0.015 µM
same,IC50,NaV1.8,> 50 µM
same,IC50,NaV1.2,0.01 µM
same,IC50,NaV1.9,1 µM
